Reference: publication PMC5544527 (Journal of neuroscience research, 2015)

Assays:
Assay type in all cases: cell-based
GABAA receptor α1β2γ2 [1] = target: T1, GABAA receptor α1β2γ2 (Homo sapiens, UniProt P14867+P47870); experiment: whole-cell patch clamp, potentiation of GABA
GABAA receptor α4β3δ = GABAA receptor α4β3δ (Homo sapiens, UniProt P28472+P48169); experiment: whole-cell patch clamp, potentiation of GABA
GABAA receptor α1β2γ2 [2] = target: T1, GABAA receptor α1β2γ2; experiment: whole-cell patch clamp, potentiation of GABA-evoked currents at […]

T1 sequence (P14867 28-456): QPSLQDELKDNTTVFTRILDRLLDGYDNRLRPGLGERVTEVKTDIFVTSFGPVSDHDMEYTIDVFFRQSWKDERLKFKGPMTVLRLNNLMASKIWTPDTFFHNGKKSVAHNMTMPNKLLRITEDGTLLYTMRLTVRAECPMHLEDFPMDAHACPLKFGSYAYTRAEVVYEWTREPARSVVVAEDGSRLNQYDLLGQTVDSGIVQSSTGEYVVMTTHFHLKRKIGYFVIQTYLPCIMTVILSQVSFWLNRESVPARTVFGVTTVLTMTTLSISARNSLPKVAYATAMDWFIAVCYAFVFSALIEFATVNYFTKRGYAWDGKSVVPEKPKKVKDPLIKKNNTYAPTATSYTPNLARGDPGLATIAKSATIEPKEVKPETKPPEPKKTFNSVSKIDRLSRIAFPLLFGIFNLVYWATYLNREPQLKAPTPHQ
T1 sequence (P47870 26-512): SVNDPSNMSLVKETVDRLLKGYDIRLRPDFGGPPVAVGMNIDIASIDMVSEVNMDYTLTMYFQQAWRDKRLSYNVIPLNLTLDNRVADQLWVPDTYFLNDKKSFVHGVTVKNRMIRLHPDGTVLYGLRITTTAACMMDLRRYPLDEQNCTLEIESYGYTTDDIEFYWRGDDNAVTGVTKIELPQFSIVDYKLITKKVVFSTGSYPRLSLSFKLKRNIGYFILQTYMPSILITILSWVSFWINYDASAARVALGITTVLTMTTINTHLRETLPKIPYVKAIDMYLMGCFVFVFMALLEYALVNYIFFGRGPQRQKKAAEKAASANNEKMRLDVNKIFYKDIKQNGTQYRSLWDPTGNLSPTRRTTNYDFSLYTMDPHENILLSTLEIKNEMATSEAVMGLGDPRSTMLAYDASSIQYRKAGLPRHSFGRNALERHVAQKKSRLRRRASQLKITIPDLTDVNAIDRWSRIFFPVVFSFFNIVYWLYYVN
T1 sequence (P18507 40-475 partner): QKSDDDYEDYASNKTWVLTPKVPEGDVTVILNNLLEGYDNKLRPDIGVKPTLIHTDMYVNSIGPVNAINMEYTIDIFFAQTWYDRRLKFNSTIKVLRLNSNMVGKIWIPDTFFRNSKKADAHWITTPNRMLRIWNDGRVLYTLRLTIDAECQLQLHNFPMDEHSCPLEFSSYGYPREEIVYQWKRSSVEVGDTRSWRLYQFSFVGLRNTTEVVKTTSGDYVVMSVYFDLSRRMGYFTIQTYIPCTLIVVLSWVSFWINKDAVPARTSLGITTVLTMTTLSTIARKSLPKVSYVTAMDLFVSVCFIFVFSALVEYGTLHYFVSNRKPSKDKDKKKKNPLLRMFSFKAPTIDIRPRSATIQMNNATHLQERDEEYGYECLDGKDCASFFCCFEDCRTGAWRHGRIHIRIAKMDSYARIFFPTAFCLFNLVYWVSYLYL
Sequence of GABAA receptor α4β3δ (P48169 36-554): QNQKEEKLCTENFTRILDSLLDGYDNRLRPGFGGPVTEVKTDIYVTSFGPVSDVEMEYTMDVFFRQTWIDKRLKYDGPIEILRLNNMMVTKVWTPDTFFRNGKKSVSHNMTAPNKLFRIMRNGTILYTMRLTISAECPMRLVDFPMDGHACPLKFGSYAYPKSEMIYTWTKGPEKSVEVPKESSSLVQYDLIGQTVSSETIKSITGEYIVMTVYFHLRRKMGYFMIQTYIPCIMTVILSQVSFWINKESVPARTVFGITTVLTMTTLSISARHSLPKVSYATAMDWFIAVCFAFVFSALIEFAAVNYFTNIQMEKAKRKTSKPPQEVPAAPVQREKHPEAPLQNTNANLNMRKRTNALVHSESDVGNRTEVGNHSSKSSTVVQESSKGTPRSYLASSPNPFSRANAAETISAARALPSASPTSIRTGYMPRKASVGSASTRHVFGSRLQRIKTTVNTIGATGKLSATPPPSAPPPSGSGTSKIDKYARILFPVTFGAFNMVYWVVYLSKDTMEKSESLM
Sequence of GABAA receptor α4β3δ (P28472 26-473): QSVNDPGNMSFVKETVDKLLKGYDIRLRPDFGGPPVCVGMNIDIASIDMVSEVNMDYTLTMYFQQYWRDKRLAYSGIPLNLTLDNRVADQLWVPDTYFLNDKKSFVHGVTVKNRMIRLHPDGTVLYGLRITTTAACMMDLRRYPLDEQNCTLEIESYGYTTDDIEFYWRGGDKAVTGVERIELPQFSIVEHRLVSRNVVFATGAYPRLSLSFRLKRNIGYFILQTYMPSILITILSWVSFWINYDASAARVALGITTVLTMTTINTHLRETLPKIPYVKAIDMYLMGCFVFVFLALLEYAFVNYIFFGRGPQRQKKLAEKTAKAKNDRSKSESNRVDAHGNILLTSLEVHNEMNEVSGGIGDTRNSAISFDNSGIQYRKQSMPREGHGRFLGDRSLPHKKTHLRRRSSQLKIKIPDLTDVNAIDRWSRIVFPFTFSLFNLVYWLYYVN
Sequence of GABAA receptor α4β3δ (O14764 25-452 partner): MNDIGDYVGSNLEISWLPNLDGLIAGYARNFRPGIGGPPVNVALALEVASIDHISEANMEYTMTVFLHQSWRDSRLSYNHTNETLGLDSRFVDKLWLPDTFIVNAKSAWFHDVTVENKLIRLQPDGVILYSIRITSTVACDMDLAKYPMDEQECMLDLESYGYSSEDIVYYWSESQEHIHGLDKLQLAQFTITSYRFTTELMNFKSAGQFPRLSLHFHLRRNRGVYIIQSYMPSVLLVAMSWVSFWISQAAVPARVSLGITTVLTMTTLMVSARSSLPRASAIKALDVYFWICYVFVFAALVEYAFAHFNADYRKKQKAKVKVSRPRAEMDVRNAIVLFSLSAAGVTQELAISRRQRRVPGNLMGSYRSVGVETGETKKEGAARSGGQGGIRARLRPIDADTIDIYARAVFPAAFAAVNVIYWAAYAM

Row | Compound | EC50 (GABAA receptor α1β2γ2 [1]) [nM] | EC50 (GABAA receptor α4β3δ) [nM] | % potentiation at 10 μM (GABAA receptor α1β2γ2 [2]) [% potentiation at 10 µM]
1 | CC(=O)[C@H]1CC[C@H]2[C@@H]3CC[C@H]4C[C@H](O)CC[C@]4(C)[C@H]3CC[C@]12C [allopregnanolone] | 185 | 80 | –
2 | SGE-872 | – | 160 | 744
